# Test results published in US11952364B2, “TRK inhibitors useful as anticancer drugs” (TYLIGAND BIOSCIENCE (SHANGHAI) LIMITED, priority 2018, dated 2024).
# Like-named read-outs stand apart in the source and are kept apart here.
# Tests used:
# [1] = molecular target: P450 2C9 (Homo sapiens (Human), UniProt P11712); assay: Cytochrome P450 inhibition in human liver microsomes; assay type: in vitro ADME
# Source text: According to the standard methods conventional in the art for cytochrome P450 enzyme system study, for example those described in Kerns, Edward H. and Di Li (2008). Drug-like Properties: Concepts. Structure Design and Methods: from ADME to Toxicity Optimization. San Diego: Academic Press; Lin, Tong et al., In Vitro Assessment of Cytochrome P450 Inhibition: Strategies for Increasing LC/MS-Based Assay Throughput Using a One-Point IC50 Method and Multiplexing High-Performance Liquid Chromatography; J. Pharm. Sci. 2007, 96(9), 2485.), the inhibitory effect of the compounds of the present disclosure on the cytochrome P450 enzyme system was investigated analogously as follows. The test compounds were evaluated by detecting the metabolism of human liver microsomes for the substrates of different subtypes of Cyp450. The liver microsomes (Sekisui XenoTech, LLC., human liver microsomes, cat. #H0610) were slowly melted on ice, and 0.482 mL of the liver microsome solution (20 mg/mL) was added to 30 mL of 100 mM potassium phosphate solution to prepare a liver microsome working solution with a concentration of 0.316 mg/mL. The test compound and specific inhibitors of different Cyp450 subtypes (as a control) were prepared into 10 mM DMSO solutions, and then 20 μL of the 10 mM DMSO compound solution was added to 180 μL of acetonitrile to obtain a 1 mM compound solution. 2 μL of such 1 mM test compound or inhibitor solution was added to 150 μL of 0.316 mg/mL liver microsome working solution to obtain a 13.16 μM compound working solution. 45.3 mg of NADPH (SIGMA, cat. #V900362) was weighted and added into 13.59 mL of deionized water to prepare a 4 mM NADPH aqueous solution. 0.2 mL of 2 mg/mL internal standard stock solution (dexamethasone in acetonitrile) was added to 1000 mL of acetonitrile (SIGMA, cat. #271004) to prepare a reaction stop solution and stored at 4° C. 150 μL 0.316 mg/mL human liver microsome working solution was added to each well of a 96-well deep plate, and 2 μL of 1 mM specific inhibitor or test compound solution was added to the corresponding wells, and then added to each well 50 μL preheated working solution of each substrate (in 4 mM NADPH solution). After incubating for 5-40 minutes respectively (different enzymes have different incubation times), 200 μL of pre-cooled reaction stop solution was added. All samples were centrifuged at 4000 rpm for 20 minutes. 150 μL of the centrifugal supernatant was then added to a new 96-well deep plate, and added to each well 150 μL of 0.1% formic acid aqueous solution, for analysis by LC/MS/MS (SCI AP4000). The single point IC50 values were calculated according to the following formula. [formula] • (Assuming Hill slope=1) • C0=concentration of test compound and inhibitor solution
# [2] = Metabolic stability in liver microsomes; assay type: in vitro ADME; settings: pH 7.4; for half-life at 1 µM: read-out: T½
# Source text: According to standard methods conventional in the art for in vitro metabolic stability studies, for example those protocols described in Kems, Edward H. and Di Li (2008). Drug-like Properties: Concepts. Structure Design and Methods: from ADME to Toxicity Optimization. San Diego: Academic Press; Di, Li et al., Optimization of a Higher Throughput Microsomal Stability Screening Assay for Profiling Drug Discovery Candidates, J. Biomol. Screen. 2003, 8(4), 453., the metabolic stability test in liver microsomes of the present compound was performed analogously as follows.
# The in vitro metabolic stability of the compound in 5 species (mouse, rat, dog, monkey, and human) was evaluated by liver microsomal stability test. 0.1M potassium phosphate buffer solution (pH 7.4, containing 1.0 mM EDTA) was prepared. The test compound and the control compound were prepared into a 10 mM DMSO solution, and then 10 μL of the 10 mM DMSO compound solution was added to 190 μL of acetonitrile to prepare a 500 μM compound solution. Liver microsomes (Sekisui XenoTech, LLC., human liver microsomes, cat. #H0610; Beagle dog liver microsomes, cat. #D1000; cynomolgus monkey liver microsomes, cat. #P2073; rat liver microsomes, cat. #R1073; mouse Liver microsomes, cat. #M1000) were taken and slowly melted on ice, then 18.75 μL of the liver microsome solution (20 mg/mL) and 1.5 μL of 500 μM compound solution were added to 479.75 μL of 0.1M potassium phosphate buffer solution to prepare a 0.75 mg/mL liver microsome working solution with a concentration of 1.5 μM compound. 6 mM NADPH (SIGMA, cat. #V900362) aqueous solution was prepared. 0.2 mL 2 mg/mL internal standard stock solution (imipramine solution in acetonitrile) was added to 1000 mL acetonitrile (SIGMA, cat. #271004) to prepare the reaction stop solution and stored at 4° C.
# Six deep-well plates were labeled as T0, T5, T15, T30, T45 and NCF60 (negative control, without NADPH). 30 μL of […] control compound or test compound solution in 0.75 mg/mL liver microsome working solution was added to each well of the corresponding plates. After being sealed with film, all the microplates were placed in a 37° C. water bath to preheat for 5 minutes, and 6 mM NADPH solution was placed in a 37° C. water bath to preheat for 5 minutes. Then 15 μL of NADPH solution was added to each cell successively in reverse time order, that is, first adding the T45 plate, 15 minutes later the T30 plate, 15 minutes later again the T15 plate, and 10 minutes later gain the T5 plate. NCF60 plate was not added with NADPH but 15 μL of deionized water. At this time, to the TO plate were added 135 μL of ice-cooled reaction stop solution and 15 μL of NADPH solution. By the end of the reaction, 135 μL of ice-precooled reaction stop solution was added successively to each well of the T5, T15, T30, and T45 plates. All samples were centrifuged at 4° C. at 600 rpm for 10 minutes, and then at 5594 g for 15 minutes (Thermo Multifugex 3R). Six 96-well plates were respectively labeled and added 50 μL of ultrapure water (Millipore, ZMQS50F01) to each well, then 50 μL of the centrifuged supernatant was added to the corresponding well of the corresponding plate, for LC-MS/MS-014 (API4000), UPLC-MS/MS-11 (API4000), LC-MS/MS-034 (API-6500+) analysis. The concentration (C0) of the test compound at TO time point was taken as 100%, and the concentrations at other incubation time points were converted into residue percentages.
# The natural logarithm of the residue percentage at each time point was subjected to linearly regression as a factor of incubation time to obtain Slope k, and then the liver microsome clearance rate (CLint^mic) and in vitro half-life (T½) were calculated according to the following formula: […]
# Chain of P450 2C9 (P11712 whole entry): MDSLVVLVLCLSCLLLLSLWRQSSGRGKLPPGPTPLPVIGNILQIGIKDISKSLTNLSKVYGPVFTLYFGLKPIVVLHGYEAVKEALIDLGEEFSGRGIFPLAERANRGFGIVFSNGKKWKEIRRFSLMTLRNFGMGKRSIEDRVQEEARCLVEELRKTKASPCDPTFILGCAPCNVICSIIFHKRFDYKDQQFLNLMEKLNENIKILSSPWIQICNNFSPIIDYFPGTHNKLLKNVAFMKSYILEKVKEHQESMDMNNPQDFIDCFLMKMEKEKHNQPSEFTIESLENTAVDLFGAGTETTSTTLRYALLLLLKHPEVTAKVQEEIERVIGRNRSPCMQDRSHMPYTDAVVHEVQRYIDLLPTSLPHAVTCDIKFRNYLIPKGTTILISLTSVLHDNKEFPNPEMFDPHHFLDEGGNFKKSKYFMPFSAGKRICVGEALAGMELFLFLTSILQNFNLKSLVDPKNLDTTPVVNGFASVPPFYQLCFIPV
IC50 [1] [µM],"CLint scaled at 1 µM ([2]; Beagle, dog liver microsomes) [mL/min/kg]","half-life at 1 µM ([2]; Beagle, dog liver microsomes) [h]",CLint scaled at 1 µM ([2]; human liver microsomes) [mL/min/kg],half-life at 1 µM ([2]; human liver microsomes) [h],CLint scaled at 1 µM ([2]; mouse liver microsomes) [mL/min/kg],half-life at 1 µM ([2]; mouse liver microsomes) [h],CLint scaled at 1 µM ([2]; rat liver microsomes) [mL/min/kg],half-life at 1 µM ([2]; rat liver microsomes) [h],Structure (SMILES),inhibitory activity on 2C9 compared with Merestinib ([1]; statement in words)
9.8,46.5,1.24,6.03,4.81,63.3,0.653,74.4,1.22,"COc1ccc(C(=O)Nc2ccc(Oc3cc4cnn(C)c4cc3-c3cn[nH]c3)c(F)c2)c(=O)n1-c1ccc(F)cc1 [Example 12, N-(3-fluoro-4-(1-methyl-6-(1H-pyrazol-4-yl)-1H-indazol-5-yloxy)phenyl)-1-(4-fluorophenyl)-6-methoxy-2-oxo-1,2-dihydropyridine-3-carboxamide]",significantly lower than that of the prior inhibitor Merestinib
4.2,38.4,1.5,22,1.32,90.3,0.459,105,0.867,"Cc1ccc(C(=O)Nc2ccc(Oc3cc4cnn(C)c4cc3-c3cn[nH]c3)c(F)c2)c(=O)n1-c1ccc(F)cc1 [Merestinib, reference compound]",
